Measured values published in article PMC10461969 (bioRxiv, 2023).
Read-outs that look alike come from different tables or passages of the source.

Key:
SIRT5 [1] = biological target: T1, SIRT5 (Homo sapiens, UniProt Q9NXA8); details: read-out: IC50 Pub., Succinyl; cited from earlier work
T1 sequence (Q9NXA8 37-310): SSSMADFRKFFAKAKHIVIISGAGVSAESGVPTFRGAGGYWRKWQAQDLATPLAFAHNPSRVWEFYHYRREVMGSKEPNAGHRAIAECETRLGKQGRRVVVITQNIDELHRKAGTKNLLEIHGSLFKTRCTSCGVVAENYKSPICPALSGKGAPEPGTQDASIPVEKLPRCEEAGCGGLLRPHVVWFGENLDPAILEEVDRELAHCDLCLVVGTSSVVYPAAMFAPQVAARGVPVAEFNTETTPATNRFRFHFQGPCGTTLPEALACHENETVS

SIRT5 [2] = biological target: T1, SIRT5; experiment: SIRTify cell-free inhibitor assay, SIRT5; details: for IC50: 250 μM NAD+
SIRT5 [3] = biological target: T1, SIRT5; experiment: SIRTify in live; type: cell-based; details: intact KG1a-LgBiT cells with furimazine
SIRT5 [4] = biological target: T1, SIRT5; experiment: SIRTify in live; type: cell-based; details: intact HepG2-LgBiT cells with furimazine
Sirt5 [5] = biological target: T2, Sirt5 (Danio rerio, UniProt Q6DHI5); experiment: Endogenous Sirt5 desuccinylation activity in zebrafish embryos; type: in vivo, zebrafish (Danio rerio); details: embryos injected with LgBiT and peptide; endurazine
T2 sequence (Q6DHI5 33-305): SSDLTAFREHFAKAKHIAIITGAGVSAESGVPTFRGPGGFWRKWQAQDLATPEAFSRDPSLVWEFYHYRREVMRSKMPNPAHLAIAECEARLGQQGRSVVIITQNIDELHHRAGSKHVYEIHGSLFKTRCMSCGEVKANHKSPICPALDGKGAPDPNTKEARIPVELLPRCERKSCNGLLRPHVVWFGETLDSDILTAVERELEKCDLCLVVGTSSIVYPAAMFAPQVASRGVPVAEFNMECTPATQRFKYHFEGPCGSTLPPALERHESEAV

Compound	IC50 (SIRT5 [1]) [nM]	lower IC50 for deglutarylase activity compared to desuccinylase activity (SIRT5 [2])	IC50 (SIRT5 [2]; Glutaryl substrate (deglutarylase activity)) [nM]	IC50 (SIRT5 [2]; Succinyl substrate (desuccinylase activity)) [nM]	luminescence versus peptide concentration (cell permeability) (SIRT5 [3])	luminescence versus peptide concentration (cell permeability) (SIRT5 [4])	luminescence over 90 minutes (endogenous desuccinylation) (Sirt5 [5])
O=C(O)CCNC(=S)NCCCC[C@H](NS(=O)(=O)c1cccc(F)c1)C(=O)N[C@@H](Cc1c[nH]c2ccccc12)C(=O)NC1CCC1	110	approximately 3 fold	47 ± 2	102 ± 8			
CC[C@H](C)[C@H](NC(=O)[C@H](CCCCN)NC(=O)[C@H](CCCCN)NC(=O)[C@H](Cc1ccccc1)NC(=O)[C@H](CC(C)C)NC(=O)[C@H](CCCNC(=N)N)NC(=O)[C@H](Cc1c[nH]c2ccccc12)NC(=O)CNC(=O)[C@H](CO)NC(=O)[C@@H](N)C(C)C)C(=O)N[C@@H](CO)C(=O)N[C@@H](CCCNC(=N)N)C(=O)N[C@@H](CCCNC(=N)N)C(=O)N[C@@H](CCCNC(=N)N)C(=O)N[C@@H](CCCNC(=N)N)C(=O)O [p86-R4]					directly proportional to p86-R4 concentration	directly proportional to p86-R4 concentration	
H2N-VSGWRLF(KGlut)(KGlut)ISRRRR-OH [p86-Glutaryl8,9-R4]					much lower signal	much lower signal	
H2N-VSGWRLF(KSuc)(KSuc)ISRRRR-OH [p86-Succinyl8,9-R4]					much lower signal	much lower signal	slight increase in luminescence
